Measured values reported in patent US6881741B2 (ViroChem Pharma Inc., priority 2001, dated 2005).

Biological target: recombinant HCV NS5B (HCV RNA-dependent RNA polymerase) (Hepatitis C virus genotype 1b, UniProt P26663)
Assay: biochemical
Conditions: IC50

Chain of recombinant HCV NS5B (HCV RNA-dependent RNA polymerase) (P26663 2420-3010 limits assumed): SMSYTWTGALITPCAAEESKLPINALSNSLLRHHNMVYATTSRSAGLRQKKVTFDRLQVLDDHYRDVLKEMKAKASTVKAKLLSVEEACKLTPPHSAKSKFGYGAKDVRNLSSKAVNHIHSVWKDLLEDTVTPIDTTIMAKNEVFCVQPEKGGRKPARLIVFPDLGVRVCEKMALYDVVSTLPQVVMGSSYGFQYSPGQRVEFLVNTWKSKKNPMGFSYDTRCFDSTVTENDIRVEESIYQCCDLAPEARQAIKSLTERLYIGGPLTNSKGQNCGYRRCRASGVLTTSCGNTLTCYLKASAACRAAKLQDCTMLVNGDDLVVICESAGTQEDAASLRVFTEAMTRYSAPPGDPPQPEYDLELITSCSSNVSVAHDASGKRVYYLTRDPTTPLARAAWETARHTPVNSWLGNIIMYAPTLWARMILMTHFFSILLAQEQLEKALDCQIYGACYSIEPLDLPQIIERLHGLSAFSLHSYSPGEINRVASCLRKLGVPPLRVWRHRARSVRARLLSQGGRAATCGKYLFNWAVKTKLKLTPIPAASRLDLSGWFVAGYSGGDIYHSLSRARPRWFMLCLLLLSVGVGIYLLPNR

CC1CCC(C(=O)N(c2cc(-c3ccccc3)sc2C(=O)O)C(C)C)CC1 (stereo not drawn) [Compound 316, 3-[ISOPROPYL-(4-METHYL- CYCLOHEXANECARBONYL)-AMINO]-5- PHENYL-THIOPHENE-2-CARBOXYLIC ACID] showed an IC50 of over 20 µM.
Molecule CC1CCC(C(=O)N(c2cc(-c3ccccc3)sc2C(=O)O)C(C)C)CC1 (stereo not drawn) [Compound 317, 3-[ISOPROPYL-(4-METHYL- CYCLOHEXANECARBONYL)-AMINO]-5- PHENYL-THIOPHENE-2-CARBOXYLIC ACID] has an IC50 of under 5 µM.

Same assay, conditions: related polymerase activity (Example 27 list); read-out: IC50

Compared with CN(C(=O)c1ccc(C(F)(F)F)c(F)c1)c1cc(-c2ccccc2)sc1C(=O)O [Compound 279, 3-[(3-FLUORO-4-TRIFLUOROMETHYL-BENZOYL)-METHYL-AMINO]-5-PHENYL-THIOPHENE-2-CARBOXYLIC ACID], CN(C(=O)c1ccc(Cl)cc1Br)c1cc(-c2ccccc2)sc1C(=O)O [Compound 284, 3-[(2-BROMO-4-CHLORO-BENZOYL)-METHYL-AMINO]-5-PHENYL-THIOPHENE-2-CARBOXYLIC ACID] is lower in IC50: 5 to 20 µM for the first, under 5 µM for the second.

First: Cc1ccc(C(=O)N(C)c2cc(-c3ccccc3)sc2C(=O)O)c(F)c1F [Compound 280, 3-[(2,3-DIFLUORO-4-METHYL-BENZOYL)-METHYL-AMINO]-5-PHENYL-THIOPHENE-2-CARBOXYLIC ACID]
Second: Cc1csc(C(=O)N(C)c2cc(-c3ccccc3)sc2C(=O)O)c1 [Compound 293, 3-[METHYL-(4-METHYL-THIOPHENE-2-CARBONYL)-AMINO]-5-PHENYL-THIOPHENE-2-CARBOXYLIC ACID]
The IC50 of the first is lower: under 5 µM for the first, 5 to 20 µM for the second.

First: Cc1ccccc1S(=O)(=O)Nc1cc(-c2ccc(C(N)=O)cc2)sc1C(=O)O [Compound 282, 5-(4-CARBAMOYL-PHENYL)-3-(TOLUENE-2-SULFONYLAMINO)-THIOPHENE-2-CARBOXYLIC ACID]
Second: Cc1ccc(S(=O)(=O)Nc2cc(-c3ccc(CO)cc3)sc2C(=O)O)c(C)c1 [Compound 320, 3-(2,4-DIMETHYL- BENZENESULFONYLAMINO)-5-(4- HYDROXYMETHYL-PHENYL)- THIOPHENE-2-CARBOXYLIC ACID]
The IC50 of the first is higher: 5 to 20 µM for the first, under 5 µM for the second. The second is the more potent here.

Cc1ccc(C(=O)N(c2cc(-c3ccc(F)cc3)sc2C(=O)O)C(C)C)cc1 [Compound 283, 5-(4-FLUORO-PHENYL)-3-[ISOPROPYL-(4-METHYL-BENZOYL)-AMINO]-THIOPHENE-2-CARBOXYLIC ACID] and Cc1ccc(C(=O)N(c2cc(-c3cccc(C)c3)sc2C(=O)O)C(C)C)cc1 [Compound 305, 3-[ISOPROPYL-(4-METHYL-BENZOYL)- AMINO]-5-M-TOLYL-THIOPHENE-2- CARBOXYLIC ACID] cannot be ordered by IC50: under 5 µM for the first, under 5 µM for the second.

Cc1cccc(C)c1S(=O)(=O)Nc1cc(-c2ccccc2)sc1C(=O)O [Compound 285, 3-(2,6-DIMETHYL-BENZENESULFONYLAMINO)-5-PHENYL-THIOPHENE-2-CARBOXYLIC ACID] and Cc1cc(C)c(S(=O)(=O)Nc2cc(-c3ccccc3)sc2C(=O)O)c(C)c1 [Compound 298, 5-PHENYL-3-(2,4,6-TRIMETHYL- BENZENESULFONYLAMINO)- THIOPHENE-2-CARBOXYLIC ACID] cannot be ordered by IC50: under 5 µM for the first, under 5 µM for the second.

Compared with CC1CCC(C(=O)N(C)c2cc(-c3ccccc3)sc2C(=O)O)CC1 (stereo not drawn) [Compound 286, 3-[METHYL-(4-METHYL-CYCLOHEXANECARBONYL)-AMINO]-5-PHENYL THIOPHENE-2-CARBOXYLIC ACID], Cc1ccc(C(=O)N(c2cc(-c3ccccc3)sc2C(=O)O)C(C)C)c(O)c1 [Compound 301, 3-[(2-HYDROXY-4-METHYL-BENZOYL)- ISOPROPYL-AMINO]-5-PHENYL- THIOPHENE-2-CARBOXYLIC ACID] is higher in IC50: under 5 µM for the first, 5 to 20 µM for the second. The first is the more potent here.

Compared with COC(=O)c1sc(-c2ccccc2)cc1N(C(=O)c1ccc(Cl)cc1Cl)C(C)C [Compound 287, 3-[(2,4-DICHLORO-BENZOYL)-ISOPROPYL-AMINO]-5-PHENYL-THIOPHENE-2-CARBOXYLIC ACID METHYL ESTER], CC(C)N(C(=O)c1ccc(Cl)cc1I)c1cc(-c2ccccc2)sc1C(=O)O [Compound 310, 3-[(4-CHLORO-2-IODO-BENZOYL)- ISOPROPYL-AMINO]-5-PHENYL- THIOPHENE-2-CARBOXYLIC ACID] is lower in IC50: 5 to 20 µM for the first, under 5 µM for the second. The second is the more potent here.

Cc1ccc(S(=O)(=O)Nc2cc(-c3ccc(C#N)cc3)sc2C(=O)O)c(C)c1 [Compound 288, 5-(4-CYANO-PHENYL)-3-(2,4-DIMETHYL-BENZENESULFONYLAMINO)-THIOPHENE-2-CARBOXYLIC ACID] and Cc1ccc(S(=O)(=O)Nc2cc(-c3ccc(S(C)(=O)=O)cc3)sc2C(=O)O)c(C)c1 [Compound 321, 3-(2,4-DIMETHYL- BENZENESULFONYLAMINO)-5-(4- METHANESULFONYL-PHENYL)- THIOPHENE-2-CARBOXYLIC ACID] cannot be ordered by IC50: under 5 µM for the first, under 5 µM for the second.

First: N#Cc1ccc(-c2cc(NS(=O)(=O)c3ccc(Cl)cc3)c(C(=O)O)s2)cc1 [Compound 289, 3-(4-CHLORO-BENZENESULFONYLAMINO)-5-(4-CYANO-PHENYL)-THIOPHENE-2-CARBOXYLIC ACID]
Second: Cc1ccc(S(=O)(=O)Nc2cc(-c3ccc(C#N)cc3)sc2C(=O)O)cc1 [Compound 290, 5-(4-CYANO-PHENYL)-3-(TOLUENE-4-SULFONYLAMINO)-THIOPHENE-2-CARBOXYLIC ACID]
The IC50 of the first is lower: under 5 µM for the first, 5 to 20 µM for the second.

CC(C)N(C(=O)c1ccc(Cl)cc1Cl)c1cc(-c2cccc(Cl)c2)sc1C(=O)O [Compound 294, 5-(3-CHLORO-PHENYL)-3-[(2,4-DICHLORO-BENZOYL)-ISOPROPYL-AMINO]-THIOPHENE-2-CARBOXYLIC ACID] and CC(C)N(C(=S)c1ccc(Cl)cc1Cl)c1cc(-c2ccccc2)sc1C(=O)O [Compound 297, 3-[(2,4-DICHLORO-THIOBENZOYL)-ISOPROPYL-AMINO]-5-PHENYL-THIOPHENE-2-CARBOXYLIC ACID] cannot be ordered by IC50: under 5 µM for the first, under 5 µM for the second.

Cc1ccc(C(=O)N(C)c2cc(-c3ccccn3)sc2C(=O)O)cc1 [Compound 296, 3-[METHYL-(4-METHYL-BENZOYL)-AMINO]-5-PYRIDIN-2-YL-THIOPHENE-2-CARBOXYLIC ACID] and Cc1ccc(C(=O)N(C)c2cc(-c3cccnc3)sc2C(=O)O)cc1 [Compound 302, 3-[METHYL-(4-METHYL-BENZOYL)- AMINO]-5-PYRIDIN-3-YL-THIOPHENE-2- CARBOXYLIC ACID] fall in the same range of IC50: 5 to 20 µM for the first, 5 to 20 µM for the second.

CC(C(=O)O)N(C(=O)c1ccc(Cl)cc1Cl)c1cc(-c2ccccc2)sc1C(=O)O (stereo not drawn) [Compound 299, 3-[(1-CARBOXY-ETHYL)-(2,4-DICHLORO- BENZOYL)-AMINO]-5-PHENYL- THIOPHENE-2-CARBOXYLIC ACID] and CC(C)N(C(=O)c1ccc(Cl)cc1O)c1cc(-c2ccccc2)sc1C(=O)O [Compound 313, 3-[(4-CHLORO-2-HYDROXY-BENZOYL)- ISOPROPYL-AMINO]-5-PHENYL- THIOPHENE-2-CARBOXYLIC ACID] cannot be ordered by IC50: under 5 µM for the first, under 5 µM for the second.

CC(C)=CCN(C(=O)c1ccc(C)cc1)c1cc(-c2ccccc2)sc1C(=O)O [Compound 300, 3-[(4-METHYL-BENZOYL)-(3-METHYL- BUT-ENYL)-AMINO]-5-PHENYL- THIOPHENE-2-CARBOXYLIC ACID] and C=CCN(C(=O)c1ccc(C)cc1)c1cc(-c2cccc(/C=C/C(=O)O)c2)sc1C(=O)O [Compound 323, 3-[ALLYL-(4-METHYL-BENZOYL)-AMINO]- 5-[3-(2-CARBOXY-VINYL)-PHENYL]- THIOPHENE-2-CARBOXYLIC ACID] fall in the same range of IC50: 5 to 20 µM for the first, 5 to 20 µM for the second.

First: Cc1ccc(C(=O)N(c2cc(-c3cccc(C(F)(F)F)c3)sc2C(=O)O)C(C)C)cc1 [Compound 304, 3-[ISOPROPYL-(4-METHYL-BENZOYL)- AMINO]-5-(3-TRIFLUOROMETHYL- PHENYL)-THIOPHENE-2-CARBOXYLIC ACID]
Second: CC(C)N(C(=O)c1ccc(C#N)cc1)c1cc(-c2ccccc2)sc1C(=O)O [Compound 311, 3-[(4-CYANO-BENZOYL)-ISOPROPYL- AMINO]-5-PHENYL-THIOPHENE-2- CARBOXYLIC ACID]
The IC50 of the first is lower: under 5 µM for the first, 5 to 20 µM for the second.

CC(C)N(C(=O)c1ccc(Cl)cc1Br)c1cc(-c2ccccc2)sc1C(=O)O [Compound 306, 3-[(2-BROMO-4-CHLORO-BENZOYL)- ISOPROPYL-AMINO]-5-PHENYL- THIOPHENE-2-CARBOXYLIC ACID] and CC(C)N(C(=O)c1ccc(Cl)cc1F)c1cc(-c2ccccc2)sc1C(=O)O [Compound 307, 3-[(4-CHLORO-2-FLUORO-BENZOYL)- ISOPROPYL-AMINO]-5-PHENYL- THIOPHENE-2-CARBOXYLIC ACID] cannot be ordered by IC50: under 5 µM for the first, under 5 µM for the second.

First: Cc1ccc(S(=O)(=O)Nc2c(C(=O)O)sc(-c3ccccc3)c2C)c(C)c1 [Compound 308, 3-(2,4-DIMETHYL- BENZENESULFONYLAMINO)-4-METHYL- 5-PHENYL-THIOPHENE-2-CARBOXYLIC ACID]
Second: Cc1ccc(S(=O)(=O)Nc2cc(-c3ccc(/C=C/C(=O)O)cc3)sc2C(=O)O)c(C)c1 [Compound 322, 5-[4-(2-CARBOXY-VINYL)-PHENYL]-3-(2,4- DIMETHYL-BENZENESULFONYLAMINO)- THIOPHENE-2-CARBOXYLIC ACID]
The IC50 of the first is higher: 5 to 20 µM for the first, under 5 µM for the second.

Compared with Cc1ccc(C(=O)N(c2cc(-c3ccccc3)sc2C(=O)O)C(C)C)c(Br)c1 [Compound 309, 3-[(2-BROMO-4-METHYL-BENZOYL)- ISOPROPYL-AMINO]-5-PHENYL- THIOPHENE-2-CARBOXYLIC ACID], Cc1c(-c2ccccc2)sc(C(=O)O)c1N(C(=O)c1ccc(Cl)cc1Cl)C(C)C [Compound 314, 3-[(2,4-DICHLORO-BENZOYL)- ISOPROPYL-AMINO]-4-METHYL-5- PHENYL-THIOPHENE-2-CARBOXYLIC ACID] is higher in IC50: under 5 µM for the first, 5 to 20 µM for the second.

First: C=CCN(C(=O)c1ccc(C)cc1)c1cc(-c2ccc(/C=C/C(=O)O)cc2)sc1C(=O)O [Compound 312, 3-[ALLYL-(4-METHYL-BENZOYL)-AMINO]- 5-[4-(2-CARBOXY-VINYL)-PHENYL]- THIOPHENE-2-CARBOXYLIC ACID]
Second: CCCN(C(=O)c1ccc(C)cc1)c1cc(-c2ccc(CCC(=O)O)cc2)sc1C(=O)O [Compound 318, 5-[4-(2-CARBOXY-ETHYL)-PHENYL]-3-[(4- METHYL-BENZOYL)-PROPYL-AMINO]- THIOPHENE-2-CARBOXYLIC ACID]
The IC50 of the first is lower: under 5 µM for the first, 5 to 20 µM for the second.

With Cc1ccc(S(=O)(=O)Nc2cc(C(C)(C)C)sc2C(=O)O)c(C)c1 [Compound 315, 5-#TERT!-BUTYL-3-(2,4-DIMETHYL- BENZENESULFONYLAMINO)- THIOPHENE-2-CARBOXYLIC ACID] the IC50 was 5 to 20 µM.
